From ChEMBL document CHEMBL1201862, “PubChem BioAssay data set” (2004)
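Five compound concentrations were applied to cells in 96-well plates for 48 hours; endpoints were derived by simple linear interpolation of the resulting dose-response curve. Here, GI50 denotes the concentration required for 50% inhibition of growth.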 The source made the active and inactive calls. No stated cut-off is given here; in the data, active = GI50 up to about 1.1 µM and inactive = higher.

Tests used:
Experiment in all cases: growth of human tumour cells (NCI), 48 h
[1] = tested on: UACC-257
[2] = tested on: MCF7
[3] = tested on: A549
[4] = tested on: Hs-578T
[5] = tested on: Malme-3M
[6] = tested on: K562
[7] = tested on: OVCAR-4
[8] = tested on: OVCAR-3
[9] = tested on: MOLT-4
[10] = tested on: CAKI-1
[11] = tested on: HT-29
[12] = tested on: DU-145
[13] = tested on: RXF 393
[14] = tested on: SK-OV-3
[15] = tested on: ACHN
[16] = tested on: HL-60
[17] = tested on: PC-3
[18] = tested on: A498
[19] = tested on: UACC-62
[20] = tested on: SK-MEL-2
[21] = tested on: RPMI-8226
[22] = tested on: BT-549
[23] = tested on: LOX IMVI
[24] = tested on: SF-268
[25] = tested on: CCRF-CEM
[26] = tested on: SN12C
[27] = tested on: COLO 205
[28] = tested on: TK-10
[29] = tested on: HCT-116
[30] = tested on: HOP-92
[31] = tested on: M14
[32] = tested on: SNB-75
[33] = tested on: SK-MEL-28
[34] = tested on: IGROV-1
[35] = tested on: MDA-MB-435
[36] = tested on: SW-620
[37] = tested on: EKVX
[38] = tested on: NCI-H460
[39] = tested on: UO-31
[40] = tested on: MDA-N
[41] = tested on: 786-0
[42] = tested on: SK-MEL-5
[43] = tested on: SNB-19
[44] = tested on: HOP-62
[45] = tested on: OVCAR-8
[46] = tested on: HCC 2998
[47] = tested on: SF-295
[48] = tested on: OVCAR-5
[49] = tested on: SF-539
[50] = tested on: NCI-H23
[51] = tested on: HCT-15
[52] = tested on: NCI/ADR-RES
[53] = tested on: MDA-MB-231
[54] = tested on: SR
[55] = tested on: U-251
[56] = tested on: KM12
[57] = tested on: T47D

With `OC1(c2ccc3ccccc3c2)c2ccc3ccccc3c2C2=NCCN21` (configuration not stated) the GI50 [1] was > 100 µM (inactive), the GI50 [2] was 48.2 µM (inactive) and the GI50 [3] was 46.5 µM (inactive). The GI50 [4] was 24.5 µM (inactive), the GI50 [5] was > 100 µM (inactive) and the GI50 [6] was 45 µM (inactive). The GI50 [7] was 22.3 µM (inactive), the GI50 [8] was > 100 µM (inactive) and the GI50 [9] was > 100 µM (inactive). The GI50 [10] was > 100 µM (inactive), the GI50 [11] was > 100 µM (inactive) and the GI50 [12] was > 100 µM (inactive). For the same molecule, the GI50 [13] was 29.4 µM (inactive), the GI50 [14] was > 100 µM (inactive) and the GI50 [15] was > 100 µM (inactive). The GI50 [16] was > 100 µM (inactive), the GI50 [17] was > 100 µM (inactive) and the GI50 [18] was > 100 µM (inactive). For the same molecule, the GI50 [19] was > 100 µM (inactive), the GI50 [20] was > 100 µM (inactive) and the GI50 [21] was > 100 µM (inactive). The GI50 [22] was > 100 µM (inactive), the GI50 [23] was 91.8 µM (inactive) and the GI50 [24] was 54.3 µM (inactive). The GI50 [25] was > 100 µM (inactive), the GI50 [26] was > 100 µM (inactive) and the GI50 [27] was > 100 µM (inactive). The GI50 [28] was 28.3 µM (inactive), the GI50 [29] was 34.6 µM (inactive) and the GI50 [30] was > 100 µM (inactive). For the same molecule, the GI50 [31] was > 100 µM (inactive), the GI50 [32] was 24.9 µM (inactive) and the GI50 [33] was > 100 µM (inactive). The GI50 [34] was > 100 µM (inactive), the GI50 [35] was > 100 µM (inactive) and the GI50 [36] was 94.8 µM (inactive). The GI50 [37] was > 100 µM (inactive), the GI50 [38] was 23.6 µM (inactive) and the GI50 [39] was 40.9 µM (inactive). For the same molecule, the GI50 [40] was > 100 µM (inactive), the GI50 [41] was 24.8 µM (inactive) and the GI50 [42] was > 100 µM (inactive). The GI50 [43] was 66.8 µM (inactive), the GI50 [44] was 18.5 µM (inactive) and the GI50 [45] was 23.3 µM (inactive). For the same molecule, the GI50 [46] was 74.1 µM (inactive), the GI50 [47] was 41.4 µM (inactive) and the GI50 [48] was > 100 µM (inactive). For the same molecule, the GI50 [49] was 19.5 µM (inactive), the GI50 [50] was > 100 µM (inactive) and the GI50 [51] was greater than 100 µM. The GI50 [52] was 37.1 µM (inactive), the GI50 [53] was 76.4 µM (inactive) and the GI50 [54] was 36.8 µM (inactive). For the same molecule, the GI50 [55] was 45.7 µM (inactive), the GI50 [56] was > 100 µM (inactive) and the GI50 [57] was > 100 µM (inactive).
